Where two headings read alike, the source gives them in different places.
How the values were obtained:
Assay type in all cases: biochemical
ROCK = ROCK (Homo sapiens, UniProt Q13464); test: ROCK inhibition assay, standard radioactive enzyme assay ("33P")
Method: Some compounds were screened for their ability to inhibit ROCK using a standard radioactive enzyme assay. Assays were carried out in a solution containing 100 mM HEPES (pH 7.5), 10 mM MgCl2, 25 mM NaCl, 2 mM DTT, and 1.5% DMSO. Final substrate concentrations in the assay were 13 μM [γ-^33P] ATP (25 mCi ^33P ATP/mmol ATP, Perkin Elmer, Cambridge, Mass./Sigma Chemicals, St Louis, Mo.) and 27 μM Myelin Basic Protein (MBP). Final enzyme concentration in the assay was 5 nM ROCK. Assays were carried out at room temperature. 1.5 μl of DMSO stock containing serial dilutions of the compound of the present invention (concentrations ranging from 10 μM to 2.6 nM) was placed in a 96 well plate. 50 μl of Solution 1 (100 mM HEPES (pH 7.5), 10 mM MgCl2, […]) was added to the plate. The reaction was initiated by addition of 50 μl of Solution 2 (100 mM HEPES (pH 7.5), 10 mM MgCl2, 4 mM DTT, […] and 10 nM ROCK). After 2 hours the reaction was quenched with 50 μL of 30% trichloroacetic acid (TCA, Fisher) containing 9 mM ATP. Transfer of 140 μL of the quenched reaction to a glass fiber filter plate (Corning, Cat. No. 3511) was followed by washing 3 times with 5% TCA. 50 μL of Optima Gold scintillation fluid (Perkin Elmer) was added and the plates were counted on a Top Count (Perkin Elmer). After removing mean background values for all of the data points the data was fit using Prism software to obtain a Ki(app).

[1] = biological target: T1, full length Aurora-A (AA 1-403) (Homo sapiens, UniProt O14965); test: Aurora-A inhibition assay, standard coupled enzyme system; settings: average Ki if more than one value determined
T1 construct: full length Aurora-A (AA 1-403)
T1 sequence (O14965 1-403): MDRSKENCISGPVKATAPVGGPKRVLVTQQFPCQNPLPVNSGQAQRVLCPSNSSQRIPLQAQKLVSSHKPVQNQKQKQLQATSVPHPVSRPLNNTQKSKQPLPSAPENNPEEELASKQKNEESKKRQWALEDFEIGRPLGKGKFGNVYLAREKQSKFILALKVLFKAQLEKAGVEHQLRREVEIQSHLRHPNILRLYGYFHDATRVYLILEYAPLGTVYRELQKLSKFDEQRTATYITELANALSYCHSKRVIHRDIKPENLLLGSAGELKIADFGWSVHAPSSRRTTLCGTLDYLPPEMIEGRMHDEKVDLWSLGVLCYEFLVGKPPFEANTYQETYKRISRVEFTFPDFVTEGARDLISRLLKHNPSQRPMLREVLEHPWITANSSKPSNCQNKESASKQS

ROCK I (AA 6-553) = biological target: T2, ROCK I (AA 6-553) (Homo sapiens, UniProt Q13464); test: ROCK inhibition assay, standard coupled enzyme system ("Enzyme"); settings: enzyme-linked assay
T2 construct: ROCK I (AA 6-553)
T2 sequence (Q13464 6-553, species assumed): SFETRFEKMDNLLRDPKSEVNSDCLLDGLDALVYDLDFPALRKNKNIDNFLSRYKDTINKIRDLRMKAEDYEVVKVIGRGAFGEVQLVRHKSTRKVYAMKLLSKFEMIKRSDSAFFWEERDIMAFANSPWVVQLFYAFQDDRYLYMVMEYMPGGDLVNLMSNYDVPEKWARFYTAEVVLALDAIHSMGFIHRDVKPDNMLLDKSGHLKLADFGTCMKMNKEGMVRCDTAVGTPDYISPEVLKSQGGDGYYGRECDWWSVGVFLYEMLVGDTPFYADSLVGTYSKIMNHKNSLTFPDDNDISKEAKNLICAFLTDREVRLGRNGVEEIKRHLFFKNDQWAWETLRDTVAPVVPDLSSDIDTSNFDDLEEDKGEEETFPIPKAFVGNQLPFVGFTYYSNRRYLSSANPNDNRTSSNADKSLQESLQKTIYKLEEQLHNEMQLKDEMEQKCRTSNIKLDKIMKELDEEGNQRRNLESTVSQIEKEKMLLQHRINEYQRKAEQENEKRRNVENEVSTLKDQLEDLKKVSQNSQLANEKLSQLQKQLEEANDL
Procedure, shortened: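 ROCK I (AA 6-553) at 45 nM and 30 °C with 45 μM ATP and 200 μM peptide, in 100 mM HEPES pH 7.5, 10 mM MgCl2, 25 mM NaCl, 2 mM DTT, 1.5% DMSO. ADP output read by a PK/LDH coupled system: 2.5 mM PEP, 350 μM NADH, 30 μg/ml PK, 10 μg/ml LDH.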

Aurora-C = biological target: T3, Aurora-C (Homo sapiens, UniProt Q9UQB9); test: Aurora-C inhibition assay, coupled enzyme system as for Aurora-A; settings: average Ki if more than one value determined
T3 sequence (Q9UQB9 1-309): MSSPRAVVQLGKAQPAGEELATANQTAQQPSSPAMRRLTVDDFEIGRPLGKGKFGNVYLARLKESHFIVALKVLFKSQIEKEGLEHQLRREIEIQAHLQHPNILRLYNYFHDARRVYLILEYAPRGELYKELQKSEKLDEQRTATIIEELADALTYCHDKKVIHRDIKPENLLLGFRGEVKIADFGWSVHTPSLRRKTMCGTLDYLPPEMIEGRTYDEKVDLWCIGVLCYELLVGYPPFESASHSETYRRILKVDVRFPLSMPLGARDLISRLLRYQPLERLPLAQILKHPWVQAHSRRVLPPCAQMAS
Method: Compounds were screened for their ability to inhibit full length Aurora-A (AA 1-403) activity using a standard coupled enzyme system (Fox et al., Protein Sci. 7, pp. 2249 (1998)). Reactions were carried out in a solution containing 100 mM HEPES (pH 7.5), 10 mM MgCl2, 25 mM NaCl, 300 μM NADH, 1 mM DTT and 3% DMSO. Final substrate concentrations in the assay were 200 μM ATP (Sigma Chemicals, St Louis, Mo.) and 800 μM peptide (LRRASLG, American Peptide, Sunnyvale, Calif.). Reactions were carried out at 30° C. and 35 nM Aurora-A. Final concentrations of the components of the coupled enzyme system were 2.5 mM phosphoenolpyruvate, 200 μM NADH, 60 μg/ml pyruvate kinase and 20 μg/ml lactate dehydrogenase.
An assay stock buffer solution was prepared containing all of the reagents listed above with the exception of ATP and the test compound of interest. The assay stock buffer solution (60 μl) was incubated in a 96 well plate with 2 μl of the test compound of interest at final concentrations spanning 0.002 μM to 30 μM at 30° C. for 10 min. Typically, a 12 point titration was conducted by preparing serial dilutions (from 1 mM compound stocks) with DMSO of the test compounds in daughter plates. The reaction was initiated by the addition of 5 μl of ATP (final concentration 200 μM). Rates of reaction were obtained using a Molecular Devices Spectramax plate reader (Sunnyvale, Calif.) over 10 min at 30° C. The Ki values were determined from the rate data as a function of inhibitor concentration using computerized nonlinear regression (Prism 3.0, Graphpad Software, San Diego, Calif.). Aurora-C activity was screened in a similar manner using Aurora-C protein. Aurora-B activity was screened using a radioactive assay, such as described in Examples 1 and 2, but using Aurora-B protein.

Aurora-B = Aurora-B (Homo sapiens, UniProt Q96GD4); test: Aurora-B inhibition assay, radioactive assay; settings: average Ki if more than one value determined
Chain of Aurora-B (Q96GD4 whole entry): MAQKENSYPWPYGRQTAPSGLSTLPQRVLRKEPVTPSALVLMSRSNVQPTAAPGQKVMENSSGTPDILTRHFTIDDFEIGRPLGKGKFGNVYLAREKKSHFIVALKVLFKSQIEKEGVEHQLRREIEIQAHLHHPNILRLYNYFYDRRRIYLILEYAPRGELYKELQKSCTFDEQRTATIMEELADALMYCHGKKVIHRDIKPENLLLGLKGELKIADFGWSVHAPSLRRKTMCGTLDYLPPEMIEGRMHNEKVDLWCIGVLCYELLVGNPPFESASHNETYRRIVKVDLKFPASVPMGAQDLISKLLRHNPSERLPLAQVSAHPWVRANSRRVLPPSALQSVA
Procedure, shortened: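 Aurora-B protein substituted into the standard radioactive kinase format: reaction quenched with TCA, product captured on glass fiber filters and 33P counted. Ki(app) derived by fitting background-corrected counts against inhibitor concentration.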

JAK2 = JAK2 (Homo sapiens, UniProt O60674); test: JAK2 inhibition assay (radioactive enzyme assay, as for JAK3); settings: average Ki if more than one value determined
Chain of JAK2 (O60674 whole entry, species assumed): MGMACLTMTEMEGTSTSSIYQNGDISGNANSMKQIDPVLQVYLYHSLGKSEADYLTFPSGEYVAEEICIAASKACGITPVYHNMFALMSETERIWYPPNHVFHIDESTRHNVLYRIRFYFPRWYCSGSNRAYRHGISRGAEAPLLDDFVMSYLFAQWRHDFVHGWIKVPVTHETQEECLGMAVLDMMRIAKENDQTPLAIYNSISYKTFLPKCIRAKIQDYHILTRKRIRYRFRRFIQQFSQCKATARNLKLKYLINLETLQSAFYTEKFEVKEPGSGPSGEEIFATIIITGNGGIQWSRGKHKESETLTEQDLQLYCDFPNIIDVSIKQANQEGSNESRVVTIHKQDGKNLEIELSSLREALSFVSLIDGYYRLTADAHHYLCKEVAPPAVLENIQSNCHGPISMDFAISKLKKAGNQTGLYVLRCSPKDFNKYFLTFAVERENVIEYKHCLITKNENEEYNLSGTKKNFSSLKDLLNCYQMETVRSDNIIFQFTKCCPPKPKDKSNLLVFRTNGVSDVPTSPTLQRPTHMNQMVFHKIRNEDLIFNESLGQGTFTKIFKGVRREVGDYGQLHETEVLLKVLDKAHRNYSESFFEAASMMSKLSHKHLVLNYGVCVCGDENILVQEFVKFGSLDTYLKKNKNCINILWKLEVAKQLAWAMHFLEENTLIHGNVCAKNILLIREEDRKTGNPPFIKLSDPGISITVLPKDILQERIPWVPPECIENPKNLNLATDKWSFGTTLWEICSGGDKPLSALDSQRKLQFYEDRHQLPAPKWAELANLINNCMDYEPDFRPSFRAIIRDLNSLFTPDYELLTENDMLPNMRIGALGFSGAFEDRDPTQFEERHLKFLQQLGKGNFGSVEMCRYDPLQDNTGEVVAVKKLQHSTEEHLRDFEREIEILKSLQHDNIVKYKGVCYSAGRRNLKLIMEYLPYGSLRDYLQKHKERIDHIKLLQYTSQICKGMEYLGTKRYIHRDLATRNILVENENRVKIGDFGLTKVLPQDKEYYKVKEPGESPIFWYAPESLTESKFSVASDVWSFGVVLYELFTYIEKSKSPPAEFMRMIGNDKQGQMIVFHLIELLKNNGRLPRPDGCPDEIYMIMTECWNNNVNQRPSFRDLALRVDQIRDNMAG
Procedure, shortened: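 Both kinases: poly(Glu)4Tyr substrate in 100 mM HEPES pH 7.4, 10 mM MgCl2, 1 mM DTT. Run 20 min at 25° C, TCA stop, filter-bound ³³P counted, Ki(app) fitted after background subtraction. JAK3: final [γ-³³P]ATP 5 μM, enzyme added as 2 nM solution. JAK2: final poly(Glu)4Tyr 15 μM, final ATP 12 μM.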

Chain of ROCK (Q13464 whole entry): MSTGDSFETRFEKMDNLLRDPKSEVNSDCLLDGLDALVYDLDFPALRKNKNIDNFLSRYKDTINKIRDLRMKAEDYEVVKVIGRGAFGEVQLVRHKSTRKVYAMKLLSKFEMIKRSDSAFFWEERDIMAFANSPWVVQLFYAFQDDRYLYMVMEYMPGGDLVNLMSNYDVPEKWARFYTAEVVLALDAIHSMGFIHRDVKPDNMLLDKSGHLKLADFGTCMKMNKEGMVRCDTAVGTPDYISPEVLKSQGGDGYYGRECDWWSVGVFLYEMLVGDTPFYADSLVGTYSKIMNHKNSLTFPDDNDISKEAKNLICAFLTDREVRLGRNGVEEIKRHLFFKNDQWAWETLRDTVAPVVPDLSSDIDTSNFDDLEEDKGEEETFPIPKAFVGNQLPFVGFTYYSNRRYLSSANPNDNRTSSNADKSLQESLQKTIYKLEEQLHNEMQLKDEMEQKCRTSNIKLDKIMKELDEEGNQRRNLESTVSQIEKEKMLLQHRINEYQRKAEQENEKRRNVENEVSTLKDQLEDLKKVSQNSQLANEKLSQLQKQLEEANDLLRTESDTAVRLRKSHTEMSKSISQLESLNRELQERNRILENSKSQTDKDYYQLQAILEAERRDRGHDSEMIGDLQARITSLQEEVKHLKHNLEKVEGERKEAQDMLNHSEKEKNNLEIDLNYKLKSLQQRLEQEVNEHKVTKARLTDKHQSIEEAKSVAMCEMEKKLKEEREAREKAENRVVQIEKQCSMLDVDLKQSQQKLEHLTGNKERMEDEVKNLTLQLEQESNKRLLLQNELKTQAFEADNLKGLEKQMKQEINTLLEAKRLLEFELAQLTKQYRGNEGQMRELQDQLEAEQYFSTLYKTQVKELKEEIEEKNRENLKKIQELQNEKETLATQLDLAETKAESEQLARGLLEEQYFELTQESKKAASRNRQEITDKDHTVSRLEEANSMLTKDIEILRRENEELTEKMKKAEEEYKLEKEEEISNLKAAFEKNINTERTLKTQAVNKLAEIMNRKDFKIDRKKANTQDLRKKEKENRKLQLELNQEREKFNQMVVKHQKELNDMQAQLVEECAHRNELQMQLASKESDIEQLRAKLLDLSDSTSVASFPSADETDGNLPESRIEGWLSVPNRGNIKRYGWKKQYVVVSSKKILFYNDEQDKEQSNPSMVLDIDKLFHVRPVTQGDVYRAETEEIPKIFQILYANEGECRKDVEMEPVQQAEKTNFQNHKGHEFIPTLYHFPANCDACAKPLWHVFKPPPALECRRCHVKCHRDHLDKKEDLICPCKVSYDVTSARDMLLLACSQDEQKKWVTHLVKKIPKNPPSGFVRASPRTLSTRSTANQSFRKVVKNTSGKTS

SMILES	Ki (ROCK; Ki(app)) [nM]	Ki [1] [nM]	Ki (ROCK) [nM]	Ki (ROCK I (AA 6-553)) [nM]	Ki (Aurora-C) [nM]	Ki (Aurora-B) [nM]	Ki (JAK2) [nM]
COc1cc(-c2c[nH]c3ncccc23)ccc1C(N)=O [Compound 31, 2-Methoxy-4-(1H-pyrrolo[2,3-b]pyridin-3-yl)-benzamide]	< 500	< 500					
Brc1cnc2[nH]c(-c3ccccc3)c(-c3ccccc3)c2c1 [Compound 211]		< 500	500 to 5000				
c1ccc(-c2cnc3[nH]cc(-c4ccccc4)c3c2)cc1 [Compound 213]		< 500	500 to 5000				
COc1cccc(-c2c[nH]c3ncc(-c4ccccc4)cc23)c1 [Compound 214]		500 to 5000	500 to 5000				
CCOc1cccc(-c2c[nH]c3ncc(-c4ccccc4)cc23)c1 [Compound 215]		500 to 5000	500 to 5000				
C[C@H](Nc1nc(-c2c[nH]c3ncc(Cl)cc23)ncc1F)C1CCCCC1 [Compound 355]		< 500		500 to 5000	< 500	< 500	
Fc1cnc(-c2c[nH]c3ncc(Cl)cc23)nc1NC1CCCCC1 [Compound 356]		< 500		500 to 5000	< 500	< 500	
CNC(=O)c1cc(N[C@@H](C)c2ccc(F)cc2)nc(-c2c[nH]c3ncc(Cl)cc23)n1 [Compound 359]		< 500		500 to 5000	< 500	< 500	
CC[C@H](Nc1nc(-c2c[nH]c3ncc(Cl)cc23)ncc1F)C(=O)NC [Compound 361]		< 500		500 to 5000	< 500	< 500	
CNC(=O)[C@@H](Nc1nc(-c2c[nH]c3ncc(Cl)cc23)ncc1F)C(C)C [Compound 362]		< 500		500 to 5000	< 500	< 500	
C[C@H](Nc1nc(-c2c[nH]c3ncc(Cl)cc23)ncc1F)C(=O)NCCNS(C)(=O)=O [Compound 368]		< 500		500 to 5000	< 500	< 500	
C[C@H](Nc1nc(-c2c[nH]c3ncc(Cl)cc23)ncc1C(=O)O)c1ccc(F)cc1 [Compound 370]		< 500		500 to 5000	< 500	< 500	
C[C@H](Nc1nc(-c2c[nH]c3ncc(Cl)cc23)ncc1C(F)(F)F)c1ccc(F)cc1 [Compound 371]		< 500		500 to 5000	< 500	< 500	< 500
C#Cc1cnc2[nH]cc(-c3ncc(F)c(N[C@@H](C)c4ccc(F)cc4)n3)c2c1 [Compound 374]		< 500		500 to 5000	< 500	< 500	
